Structures can show the parent of a compound that is named as a salt.
Assays:
Assay type in all cases: cell-based
Gram-positive bacteria = test: activity against Gram-positive bacteria; conditions: in words
Gram-negative bacteria = test: minimal inhibiting concentrations against Gram-negative bacteria; conditions: in words
Streptococcus pneumoniae = test: minimal inhibiting concentration against Streptococcus pneumoniae; conditions: sodium salt
Streptococcus pyogenes = test: minimal inhibiting concentration against Streptococcus pyogenes; conditions: sodium salt
[1] = system: penicillinase non-producer Staphylococcus aureus; test: minimal inhibiting concentration against penicillinase non-producer Staphylococcus aureus; conditions: sodium salt
[2] = system: penicillinase producer Staphylococcus aureus; test: minimal inhibiting concentration against penicillinase producer Staphylococcus aureus; conditions: sodium salt
Proteus vulgaris X 20 = test: activity against Proteus vulgaris X 20; conditions: in words
Escherichia coli 1507 E = test: activity against Escherichia coli 1507 E; conditions: in words
Escherichia coli TEM = test: activity against Escherichia coli TEM; conditions: in words
[3] = system: Klebsiella pneumoniae ATCC 10031; test: activity against Klebsiella pneumoniae ATCC 10031; conditions: in words

C[C@@H](O)[C@H]1C(=O)N2C(C(=O)O)=C(CSc3nnnn3C)S[C@H]12 [(5R,6S)-6-[1(R)-hydroxyethyl]-2-[1-methyl-1,2,3,4-tetrazol-5-yl)-thiomethyl]-penem-3-carboxylic acid]
minimal inhibiting concentrations against Gram-positive bacteria (Gram-positive bacteria): particularly favourable values | minimal inhibiting concentrations against Gram-negative bacteria (Gram-negative bacteria): particularly favourable values

C[C@@H](O)[C@H]1C(=O)N2C(C(=O)O)=C(CSc3nnnn3CCC(N)=O)S[C@H]12 [(5R,6S)-6-[1(R)-hydroxyethyl]-2-[1-(2-aminocarbonylethyl)-1,2,3,4-tetrazol-5-yl]-thiomethyl-penem-3-carboxylic acid]
minimal inhibiting concentrations against Gram-positive bacteria (Gram-positive bacteria): particularly favourable values | minimal inhibiting concentrations against Gram-negative bacteria (Gram-negative bacteria): particularly favourable values

C[C@@H](O)[C@H]1C(=O)N2C(C(=O)O)=C(CSc3ccc4nnnn4n3)S[C@H]12 [Sodium(5R,6S)-6-[1(R)-hydroxyethyl]-2-(tetrazolo[1,5-b]-pyridazin-6-yl)-thiomethyl-penem-3-carboxylate]
MIC (Streptococcus pneumoniae): 2 ng/mL | MIC (Streptococcus pyogenes): 2 ng/mL | MIC [1]: 4 ng/mL | MIC [2]: 4 ng/mL

C[C@@H](O)[C@H]1C(=O)N2C(C(=O)O)=C(CSc3ccc4nnnn4n3)S[C@H]12 [(5R,6S)-6-[1(R)-hydroxyethyl]-2-{tetrazolo[1,5-b]pyridazin-6-yl}-thiomethyl-penem-3-carboxylic acid]
activity against Gram-positive bacteria (Gram-positive bacteria): particularly active

C[C@@H](O)[C@H]1C(=O)N2C(C(=O)O)=C(CSc3nnc(SCC(=O)O)s3)S[C@H]12 [(5R,6S)-6-[1(R)-hydroxyethyl]-2-(5-carboxymethylthio-1,3,4-thiadiazol-2-yl)-thiomethyl-penem-3-carboxylic acid]
minimal inhibiting concentrations against Gram-positive bacteria (Gram-positive bacteria): particularly favourable values | minimal inhibiting concentrations against Gram-negative bacteria (Gram-negative bacteria): particularly favourable values

C[C@@H](O)[C@H]1C(=O)N2C(C(=O)O)=C(CSc3nc(=O)c(O)nn3C)S[C@H]12 [(5R,6S)-6-[1(R)-hydroxyethyl]-2-(2-methyl-5-oxo-6-hydroxy-2,5-dihydro-1,2,4-triazin-3-yl)-thiomethyl-penem-3-carboxylic acid, disodium salt]
activity against Gram-negative bacteria (Proteus vulgaris X 20): particularly favourable activity | activity against Gram-negative bacteria (Escherichia coli 1507 E): particularly favourable activity | activity against Gram-negative bacteria (Escherichia coli TEM): particularly favourable activity | activity against Gram-negative bacteria [3]: particularly favourable activity

Reference: patent US4577016A, “Process for the preparation of penem derivatives” (Farmitalia Carlo Erba S.p.A., priority 1982, dated 1986)
